Results published in patent US5268003A (priority 1992, dated 1993).

How the values were obtained:
[1] = Bleaching of tea (BC-1) stained cotton in Terg-o-tometer, reflectance change; conditions: 10 ppm A.O.; for BC-1 ΔΔR pH 8: pH 8, 40° C.; for BC-1 ΔΔR pH 8 / BC-1 ΔΔR pH 9 / BC-1 ΔΔR pH 10: P-Surf base (1.5 g/l), 15 minutes, average of duplicates; for BC-1 ΔΔR pH 9: pH 9, 40° C.; for BC-1 ΔΔR pH 10: pH 10, 40° C.
Method: (§1) The bleaching performance of the peracids was evaluated against common stains such as tea (BC-1) and ink. Typically the cotton test pieces (3"×4") were stained with the appropriate stain and washed in a Terg-o-tometer for 15 minutes at 40° C. in a 500 mL aqueous wash solution. Dosage of the peracid was 10 ppm active oxygen.
Stain bleaching was measured reflectometrically using a Colorgard System/05 Reflectometer. Bleaching was indicated by an increase in reflectance, reported as ΔΔR. In general a ΔΔR of one unit is perceivable in a paired comparison while ΔΔR of two units is perceivable monadically. In reporting the reflectance change, the change in reflectance caused by general detergency has been accounted for. Thus ΔΔR can actually be expressed as:
ΔΔR=ΔR peracid+detergent-ΔR detergent
where ΔR is the reflectance difference of the stained fabric after and before washing.
BC-1 experiments were run in duplicate and the value shown is an average. In order to ensure that the solids were as finely dispersed as possible, one of the BC-1 experiments of each pair was usually conducted by predissolving the peracid in 1 ml of DMF; if this value was within 1 unit of the experiment using finely ground peracid, the values were averaged.
(§2) Bleaching Results at 40° C., 10 ppm A.O., P-Surf base (1.5 g

[2] = Bleaching of ink stained cotton in Terg-o-tometer, change in B-axis of Hunter color scale; conditions: pH 9, 40° C., 10 ppm A.O., P-Surf base (1.5 g/l), 15 minutes; corrected for detergent control
Method: as §1
Ink stain bleaching was measured as ΔB where the quantity ΔB is the change in the B-axis of the Hunter color scale. The ink stain is initially blue and loses color with bleaching thereby increasing the value of ΔB. Recorded ΔΔB values are ΔB values corrected for the cleaning accomplished by the detergent control.
as §2

[3] = heavy-duty liquid detergent, pH 4.5

SMILES | BC-1 ΔΔR pH 8 [1] | BC-1 ΔΔR pH 8 (DMF value in parenthesis) ([1]; pH 8, peracid predissolved in 1 ml of DMF, 40° C., P-Surf base) | BC-1 ΔΔR pH 9 [1] | BC-1 ΔΔR pH 9 (DMF value in parenthesis) ([1]; pH 9, peracid predissolved in 1 ml of DMF, 40° C., P-Surf base) | BC-1 ΔΔR pH 10 [1] | INK ΔΔB pH 9 [2] | t1/2 at 40° C. [3] [days]
O=C(Nc1ccccc1NC(=O)c1ccc(C(=O)OO)cc1)c1ccc(C(=O)OO)cc1 [1,2-PCBPD, N,N'-Di(4-percarboxybenzoyl)-1,2-phenylenediamine] | 4.4 | 8.1 | 4.1 | 6.5 | 3.9 | 24.9 | 33
O=C(CCCCC(=O)OO)Nc1ccc(NC(=O)CCCCC(=O)OO)cc1 [DPAPD, N,N'-Di(percarboxyadipoyl)phenylenediamine] | 7.1 | – | 6.7 | – | 4.0 | 8.0 | 32
O=C(Nc1ccc(C(=O)OO)cc1)c1ccc(C(=O)Nc2ccc(C(=O)OO)cc2)cc1 [DPCAT, N,N'-Di(4-Percarboxyaniline)terephthalate] | 1.6 | – | 1.5 | – | 2.3 | 3.1 | 65
O=C(CCCCCN1C(=O)c2ccccc2C1=O)OO [PAP, N-phthaloylamino peroxycaproic acid, reference compound] | – | – | – | – | – | – | 3
O=C(NCCCCNC(=O)c1ccc(C(=O)OO)cc1)c1ccc(C(=O)OO)cc1 [PCBBD, N,N'-Di(4-percarboxybenzoyl)-1,4-butanediamine] | 9.5 | – | 9.4 | – | 6.0 | 28.9 | 15
O=C(NCCNC(=O)c1ccc(C(=O)OO)cc1)c1ccc(C(=O)OO)cc1 [PCBED, N,N'-Di(4-Percarboxybenzoyl)ethylenediamine] | 10.6 | – | 9.0 | – | 5.9 | 19.1 | –
O=C(N[C@H]1CC[C@H](NC(=O)c2ccc(C(=O)OO)cc2)CC1)c1ccc(C(=O)OO)cc1 [PCBHEX, N,N'-Di(4-percarboxybenzoyl)-1,4-diaminocyclohexane] | 0.9 | – | 2.1 | – | 3.1 | 4.2 | –
O=C(OO)c1ccc(C(=O)N2CCN(C(=O)c3ccc(C(=O)OO)cc3)CC2)cc1 [PCBPIP, N,N'-Di(4-percarboxybenzoyl)piperazine] | 3.0 | – | 2.9 | – | 3.1 | 9.7 | 79
O=C(CCC(=O)Nc1ccc(C(=O)OO)cc1)Nc1ccc(C(=O)OO)cc1 [SDPCA, N,N'-Succinoyl-di(4-percarboxy)aniline] | 2.7 | – | 3.3 | – | 5.0 | 16.8 | 43
